These results are taken from ChEMBL document CHEMBL4765451, “The one-pot synthesis of butyl-1H-indol-3-alkylcarboxylic acid derivatives in ionic liquid as potent dual-acting agent for management of BPH” (Eur J Med Chem, 2020).

Some results are limits rather than exact numbers.

A word on the IC50: it is the concentration that inhibits the measured activity by half. In general, AUC(0-t) refers to the area under the concentration-time curve up to a stated or last time point. A lower AUC(0-t) goes with less exposure. The bioavailability is the share of a dose that reaches the circulation, judged against a reference dose that is usually intravenous. The term MRT denotes a mean duration of stay, worked out from the concentration-time curve. By half-life is commonly meant the time needed for the level to fall by half in the phase considered. Low values mean rapid decline, high ones slow decline. For orientation: AUC(0-inf) means total exposure, with the tail of the curve extrapolated. Low values mean less exposure, high ones more exposure. By Cmax is commonly meant the maximum level reached in the sampled fluid or tissue. The term Tmax denotes the time at which the peak concentration occurs.

Data set [1] has as its target T1, Alpha-1B adrenergic receptor (Homo sapiens, UniProt P35368).
T1 sequence (P35368 whole entry): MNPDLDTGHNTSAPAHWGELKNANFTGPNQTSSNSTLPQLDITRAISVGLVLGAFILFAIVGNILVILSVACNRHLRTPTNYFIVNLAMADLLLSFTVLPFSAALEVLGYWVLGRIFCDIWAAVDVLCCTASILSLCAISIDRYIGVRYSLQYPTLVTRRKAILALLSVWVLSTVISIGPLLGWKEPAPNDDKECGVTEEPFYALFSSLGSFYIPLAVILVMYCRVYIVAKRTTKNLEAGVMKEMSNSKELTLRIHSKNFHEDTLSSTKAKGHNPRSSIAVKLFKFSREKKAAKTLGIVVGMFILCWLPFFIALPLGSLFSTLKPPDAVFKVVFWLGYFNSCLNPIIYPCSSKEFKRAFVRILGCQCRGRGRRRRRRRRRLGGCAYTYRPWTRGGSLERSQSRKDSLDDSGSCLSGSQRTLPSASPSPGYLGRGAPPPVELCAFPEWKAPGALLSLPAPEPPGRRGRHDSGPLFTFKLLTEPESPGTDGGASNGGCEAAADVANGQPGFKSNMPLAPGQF
Kind of data set: Antagonist activity at human alpha1B receptor transfected in HEK293 cells co-transfected with Galpha16 assessed as reduction in intracellular calcium release incubated for 40 mins by Fluo-4AM dye based fluorescence assay. It is filed as functional, cell-based. Background: Calcium assays in cells follow changes in intracellular calcium, usually with a dye or a luminescent sensor.

The target of data set [2] is T2, Alpha-1D adrenergic receptor (Homo sapiens, UniProt P25100).
T2 sequence (P25100 whole entry): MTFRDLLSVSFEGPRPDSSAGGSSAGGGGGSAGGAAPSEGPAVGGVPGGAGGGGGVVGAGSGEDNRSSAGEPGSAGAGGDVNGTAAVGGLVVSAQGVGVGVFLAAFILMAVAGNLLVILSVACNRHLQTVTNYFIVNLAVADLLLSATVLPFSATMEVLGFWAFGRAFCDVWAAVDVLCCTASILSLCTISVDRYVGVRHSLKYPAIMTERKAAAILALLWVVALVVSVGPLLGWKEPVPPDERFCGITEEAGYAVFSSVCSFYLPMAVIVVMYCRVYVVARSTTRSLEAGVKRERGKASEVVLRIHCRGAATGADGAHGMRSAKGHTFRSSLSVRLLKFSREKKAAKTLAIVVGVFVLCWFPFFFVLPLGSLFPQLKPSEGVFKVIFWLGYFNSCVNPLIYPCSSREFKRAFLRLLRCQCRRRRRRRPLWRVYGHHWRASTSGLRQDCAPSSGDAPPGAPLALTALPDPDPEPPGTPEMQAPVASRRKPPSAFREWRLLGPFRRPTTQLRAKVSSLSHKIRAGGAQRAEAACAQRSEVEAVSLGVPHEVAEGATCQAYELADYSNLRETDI
Kind of data set: Antagonist activity at human alpha1D receptor transfected in HEK293 cells co-transfected with Galpha16 assessed as reduction in intracellular calcium release incubated for 40 mins by Fluo-4AM dye based fluorescence assay. It counts as functional, cell-based.

Data set [3] addresses T3, Alpha-1A adrenergic receptor (Homo sapiens, UniProt P35348).
T3 sequence (P35348 whole entry): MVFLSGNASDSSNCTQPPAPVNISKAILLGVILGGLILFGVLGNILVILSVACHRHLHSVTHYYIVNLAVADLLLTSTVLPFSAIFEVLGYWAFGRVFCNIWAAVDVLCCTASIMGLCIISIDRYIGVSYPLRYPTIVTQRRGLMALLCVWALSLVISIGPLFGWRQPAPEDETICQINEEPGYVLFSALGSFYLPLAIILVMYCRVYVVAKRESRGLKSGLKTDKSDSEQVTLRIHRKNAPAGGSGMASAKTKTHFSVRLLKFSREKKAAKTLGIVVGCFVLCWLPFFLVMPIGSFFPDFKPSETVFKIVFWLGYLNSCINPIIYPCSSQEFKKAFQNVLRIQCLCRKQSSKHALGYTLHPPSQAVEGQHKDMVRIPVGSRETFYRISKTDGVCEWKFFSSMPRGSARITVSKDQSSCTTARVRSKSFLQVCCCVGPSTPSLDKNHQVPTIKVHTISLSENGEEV
Kind of data set: Antagonist activity at human alpha1A receptor transfected in HEK293 cells co-transfected with Galpha16 assessed as reduction in intracellular calcium release incubated for 40 mins by Fluo-4AM dye based fluorescence assay. It counts as functional, cell-based.

Data set [4] is described as follows: Inhibition of 5-alpha reductase in rat liver microsomes assessed as inhibition of DHT formation using testosterone as substrate incubated for 10 mins by NADPH assay.
A short description of data set [5]: AUC (0 to t) in Sprague-Dawley rat at 20 mg/kg, ip. To be noted: in vivo. Details: dose 20 mg/kg. It is filed as ADME, organism-based.
Data set [6] in a line: Bioavailability in Sprague-Dawley rat at 20 mg/kg, ip. It is filed as ADME, organism-based. The note with it: in vivo.
Data set [7] in a line: MRT in Sprague-Dawley rat at 20 mg/kg, ip. The note with it: in vivo. It is filed as ADME, organism-based.
Data set [8] in a line: Half life in Sprague-Dawley rat at 20 mg/kg, ip. The note with it: in vivo. It is filed as ADME, organism-based.
Data set [9] is described as follows: AUC (0 to infinity) in Sprague-Dawley rat at 20 mg/kg, ip. The note with it: in vivo. It counts as ADME, organism-based. Details: time infinity, route intraperitoneal, dose 20 mg/kg.
A short description of data set [10]: Half life in Sprague-Dawley rat at 2 mg/kg, iv. It is filed as ADME, organism-based. To be noted: in vivo.
Data set [11] is described as follows: MRT in Sprague-Dawley rat at 2 mg/kg, iv. The note with it: in vivo. It counts as ADME, organism-based.
A short description of data set [12]: Cmax in Sprague-Dawley rat at 20 mg/kg, ip. It is filed as ADME, organism-based. Further details: route intraperitoneal, dose 20 mg/kg. The note with it: in vivo.
Data set [13] is described as follows: Tmax in Sprague-Dawley rat at 20 mg/kg, ip. The note with it: in vivo. It is filed as ADME, organism-based.
Data set [14] in a line: AUC (0 to t) in Sprague-Dawley rat at 2 mg/kg, iv. It counts as ADME, organism-based. Further details: dose 2 mg/kg. To be noted: in vivo.
The test system of a further data set is Huh-7. Kind of data set: Cytotoxicity against human Huh-7 cells assessed as reduction in cell viability at 0.390625 to 100 uM incubated for 72 hrs by MTT assay. It is filed as cell-based. To be noted: huh-7, 72 h, dose 0.390625-100 µM. Background: Tetrazolium dyes change colour on reduction, which living cells bring about.
The nature of data set [15]: Cmax in Sprague-Dawley rat at 2 mg/kg, iv. Details: route intravenous, dose 2 mg/kg. It is filed as ADME, organism-based. To be noted: in vivo.
A further data set deals with Caco-2. Kind of data set: Cytotoxicity against human Caco-2 cells assessed as reduction in cell viability at 0.390625 to 100 uM incubated for 72 hrs by MTT assay. It counts as cell-based. The note with it: caco-2, 72 h, dose 0.390625-100 µM.
Data set [16] in a line: AUC (0 to infinity) in Sprague-Dawley rat at 2 mg/kg, iv. It counts as ADME, organism-based. Details: time infinity, route intravenous, dose 2 mg/kg. To be noted: in vivo.
Data set [17] is described as follows: Tmax in Sprague-Dawley rat at 2 mg/kg, iv. It is filed as ADME, organism-based. The note with it: in vivo.

As to `COc1ccccc1N1CCN(CCCCCn2cc(CCCC(=O)O)c3ccccc32)CC1`, the IC50 in data set [1] was 9.8 nM; in data set [2] it was 378 nM; in data set [3], greater than 1000 nM; in data set [4], greater than 5000 nM.
Turning to `O=C(O)CCCc1cn(CCCCCN2CCN(c3ccccc3Cl)CC2)c2ccccc12`, the IC50 was greater than 1000 nM in [1], 329 nM in data set [2], 32.9 nM in data set [3] and 612 nM in data set [4].
As for `COc1ccccc1N1CCN(CCCCn2cc(CCCC(=O)O)c3ccccc32)CC1`, the IC50 in data set [1] was greater than 1000 nM; in data set [2] it was 189 nM; in data set [3] it was 20.8 nM; in [4], 568 nM. Besides, the AUC(0-t) is 17.5 ng·h/mL in data set [5] and 12.3 ng·h/mL in [14]. In data set [6], this compound showed a bioavailability of 8.83%. Further, the MRT is 1.49 h in [7] and 1.94 h in data set [11]. Besides, the half-life in [8] is 5.75 h; in data set [10], 11 h. The AUC(0-inf) is 26.9 ng·h/mL in data set [9] and 30.5 ng·h/mL in [16]. In addition, the Cmax in [12] turned out to be 89.6 ng/mL; in data set [15] it was 37.9 ng/mL. In addition, the Tmax in data set [13] and in [17] was 3 min each time. Further, the Activity result in the data set on Huh-7 and with Caco-2 was “Non-Toxic” throughout.
In the case of `O=C(O)CCCc1cn(CCCCN2CCN(c3ccccc3Cl)CC2)c2ccccc12`, the IC50 in data set [1] is greater than 1000 nM; in data set [2], 189 nM; in [3] it was greater than 1000 nM; in data set [4] it was greater than 5000 nM.
For the compound `COc1ccccc1N1CCN(CCCn2cc(CCCC(=O)O)c3ccccc32)CC1`, the IC50 was greater than 1000 nM in data set [1], 164 nM in data set [2], greater than 1000 nM in [3] and greater than 5000 nM in data set [4].
Consider `CC(C)(C)NC(=O)[C@H]1CC[C@H]2[C@@H]3CC[C@H]4NC(=O)C=C[C@]4(C)[C@H]3CC[C@]12C` [FINASTERIDE], for which the IC50 in data set [4] is 590 nM.
Take `CCOc1ccccc1OCCN[C@H](C)Cc1ccc(OC)c(S(N)(=O)=O)c1` [TAMSULOSIN]: the IC50 in data set [1] amounted to 4.2 nM; in data set [2] it was 0.15 nM.
